For 22 molecules, IC50 and inhibition results are on record in US5359073A, “Substituted-phenyl (N,N'-cycloalkyl/alkyl carboxamide)-1H/3H-imidazo[4,5-b]pyridine compounds as PAF antagonists” (G. D. Searle & Co., priority 1992, dated 1994).

For test [1], the target named is T1, PAF receptor (human platelet membrane) (Homo sapiens, UniProt P25105).
T1 construct: The platelets were broken by freezing in a dry ice-ethanol bath; tissue Lifesource, Inc. (Glenview, Ill.); host or cells: human packed platelets (membrane preparation)
T1 sequence (P25105 whole entry): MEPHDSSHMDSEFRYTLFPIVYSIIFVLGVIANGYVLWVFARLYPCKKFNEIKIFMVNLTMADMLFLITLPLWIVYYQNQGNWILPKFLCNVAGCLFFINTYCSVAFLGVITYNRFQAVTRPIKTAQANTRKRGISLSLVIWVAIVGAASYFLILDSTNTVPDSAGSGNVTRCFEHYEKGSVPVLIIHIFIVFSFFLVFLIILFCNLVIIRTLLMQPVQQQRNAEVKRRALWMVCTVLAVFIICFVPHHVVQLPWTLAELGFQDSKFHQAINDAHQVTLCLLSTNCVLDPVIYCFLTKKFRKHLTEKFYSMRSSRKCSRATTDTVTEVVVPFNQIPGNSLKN
As to the kind of experiment: Assay A: Human Platelet Receptor Binding (inhibition of specific [^3 H]PAF binding to human platelet membrane preparation). The following applies: for pIC50: human platelet membranes, 0.75 nM [^3 H]PAF, 30 minutes at 24° C., pH 7.4. On the procedure: Compounds of the invention were evaluated for their ability to inhibit specific binding of [^3 H]PAF to human platelet membrane preparation. Human packed platelets were obtained from Lifesource, Inc. (Glenview, Ill.) and washed 3 times with 10 mM Trizma pH 7.0, 2 mM EDTA (dipotassium salt), 150 mM KCL and then once with 10 mM Trizma 7.4, 20 mM CaCL2. The platelets were broken by freezing in a dry ice-ethanol bath, followed by thawing in 24° C. water baths. The preparation was centrifugation (40,000 x g, 20 minutes, 4° C.) and the pellet resuspended in 10 mM Trizma 7.4, 20 mM CaCL2, 5 mg/ml human albumin. Protein concentration in the platelet membrane preparation was determined by the Lowry method [ref]. Aliquots of the membrane preparation were stored at -70° C. Each preparation was characterized for PAF receptor number and dissociation constant (Kd). In binding assays 5 μl of test compound, solubilzed in DMSO, was added to polypropylene tubes along with 0.75 nM [^3 H]PAF and 200 mcl [0.075 nM] of membranes and 95 μl 10 mM Trizma 7.4, 20 mM CaCL2, 5 mg/ml human albumin. Tubes were incubated for 30 minutes at 24° C. The incubation was terminated by adding 4 ml of ice-cold 10 mM Trizma DH 7.4, 20 mM CaCL2 and 20 mg/ml BSA prior to vacuum filtration using Whatman GF/C filters. Filters were prepared and counted for a scintillation counter. All DPM values were corrected for background and isotope decay. Triplicate determinations for single doses were averaged. The amount of non-specific binding was subtracted from all dose averages, giving an amount of specific binding in all cases. The IC50 values for compounds of the invention determined by the Allfit program using percent displacement data. Allfit is a `basic` computer program for simultaneous curve fitting of a family of signoidal dose-response curves using the four parameter logistic equation.

For test [2], the system named is PAF-induced aggregation of human platelets. As to the kind of experiment: Assay B: Human Platelet Aggregation Inhibition (PAF-induced aggregation in human platelet-rich plasma). Type of test: cell-based. The following applies: 37°. As to the method: Compounds of the invention were evaluated for their ability to inhibit PAF-induced aggregation of human platelets in a human-platelet-rich plasma. Venous blood was collected from donors who fasted for 8 hours and were instructed not to use antiinflammatory drugs for 2 weeks prior to blood draw. Blood was collected into syringes containing 0.1 ml of 3.8% [w/v] citrate and centrifuged in polypropylene tubes at 150xg for 20 minutes at room temperature. The platelet rich plasma [PRP] was collected and let sit for 20 minutes at room temperature. Platelet activating factor [PAF] was diluted in 0.9% NaCl with 0.25% bovine serum albumin. Silicon treated cuvettes with stir bars were placed in the 37° heating block of the platelet aggregometer [Bio/Data Corporation, Platelet Aggregation Profiler, Model PAP-4]. PRP and test compound were added to cuvettes and aggregation monitored for 10-15 seconds at 37° with stirring. PAF was added and aggregation monitored for an additional 3 minutes. Peak aggregation was considered the peak of the first aggregation wave usually 45-60 seconds after PAF addition. Inhibition of aggregation was determined by the following: 1-[(% aggregation in the presence of compound).div.(% maximal aggregation)]. A log/logit transformation was used to determine half maximal inhibitory concentration of a test compound [IC50 ].

In test [3] the target is T2, [^3 H]PAF receptors on human neutrophil membrane (Homo sapiens, UniProt P25105).
T2 construct: Human neutrophils were isolated from venous blood by dextran sedimentation; from tissue; host or cells: human neutrophils from venous blood (membrane preparation)
T2 sequence (P25105 whole entry): as above
As to the kind of experiment: Assay C: Human Neutrophil Receptor Binding (inhibition of specific [^3 H]PAF binding to human neutrophil membrane). As to conditions: human neutrophil membranes, 0.9 nM [^3 H]PAF, 30 minutes at 24°, pH 7.4. On the procedure:
Compounds of the invention were evaluated for their ability to inhibit PAF-induced specific binding of [^3 H]PAF to receptors on human neutrophil membrane. Human neutrophils were isolated from venous blood by dextran sedimentation followed by density gradient centrifugation using Ficoll-Hypaque [J. Biol. Chem., 254:7865-7869, 1979]. Residual red blood cells were removed by hypotonic lysis. Neutrophils were suspended in 50 mM Tris-HCl buffer, pH 7.7, and cells disrupted by sonication for 15 seconds on ice. Unbroken cells and nuclei were removed by slow speed centrifugation [1000xg, 10 min. 4°]. The resultant supernatant was centrifuged at 100,000xg for 60 minutes at 4°. The pellet was suspended in 10 mM Tris-HCl, pH 7.4, with 10 mM MgCl2. Protein content was determined by the method of Lowry [J. Biol. Chem., 193:265-275, 1951]. Membranes were characterized for the concentration of binding sites [Bmax] and affinity for the ligand [Kd] using [^3 H]PAF by Scatchard analysis. Binding assays were conducted by incubating 50 mcg of membranes with 0.9 nM [^3 H]PAF and test compounds in 10 mM Tris-HCl buffer, pH 7.4, containing 0.1% bovine serum albumin. Nonspecific binding was determined by the addition of 1 μM PAF. Binding assay were done for 30 minutes at 24°. The assay was terminated by filtration-through a Whatman GF/C glass filters and radioactivity determined by liquid scintillation counting.

Usually pIC50 stands for −log10 of the IC50, conventionally taken in molar units. Low readings indicate a high IC50, high ones a low IC50. As a reminder, the inhibition is the percentage by which the read-out fell short of the control. Read a high inhibition as a response far below the control.

Structures are written as SMILES. pIC50: −log10 of the molar value.

In test [1], `COc1cc(C(=O)N(C2CCCC2)C2CCCC2)ccc1Cn1cnc2cccnc21` [Example 1] had a negative-log IC50 (pIC50) of 5.99.
On to `COc1cc(C(=O)N(C2CCCC2)C2CCCC2)ccc1Cn1cnc2ncccc21` [Example 2, N, N-dicyclopentyl-4-(1H-imidazo[4,5-b]pyridin-1-ylmethyl)-3-methoxybenzamide], for which the pIC50 was 7.11 in test [1] and 6.64 in test [2].
Turning to `COc1cc(C(=O)N(C(C)C)C2CCCCC2)ccc1Cn1c(CO[Si](C)(C)C(C)(C)C)nc2ncccc21` [Example 16, N-cyclohexyl-4-[[2-[[[(1,1-dimethyethyl)dimethylsilyl]oxy]methyl]-1H-imidazo[4,5-b]pyridin-1-yl]methyl]-3-methoxy-N-(1-methylethyl)benzamide], the pIC50 in test [1] is 7.29.
With `COc1cc(Cn2cnc3ncccc32)ccc1C(=O)N(C1CCCC1)C1CC(C)CC(C)C1` (stereo not shown) [Example 8, N-cyclopentyl-N-(3,5-dimethylcyclohexyl)-4-(1H-imidazo[4,5-b]pyridin-1-ylmethyl)-2-methoxybenzamide], the negative-log IC50 (pIC50) is 7.46 in test [1], 8.15 in test [2] and 7.64 in test [3].
In turn, `COc1cc(C(=O)N(C(C)C)C2CCCCC2)ccc1Cn1c(-c2ccccc2Cl)nc2cccnc21` [Example 15, 4-[[2-(2-chlorophenyl) -3H-imidazo[4,5-b]pyridin-3yl]methyl]-N-cyclohexyl-3-methoxy-N-(1-methylethyl)benzamide] gave a negative logarithm of the IC50 (pIC50) in test [1] of 6.24.
Regarding `COc1cc(Cn2cnc3ncccc32)ccc1C(=O)N(C1CCCCC1)C1CCCC1` [Example 13, N-cyclohexyl-N-cyclopentyl-4-(1H-imidazo[4,5-b]pyridin-1-ylmethyl)-2-methoxybenzamide], the negative logarithm of the IC50 (pIC50) in test [1] was 6.69.
The same measure, in the same setting: then `Cc1cc(C(=O)N(C2CCCCC2)C2CCCC2)ccc1Cn1cnc2ncccc21` [Example 9, N-cyclohexyl-N-cyclopentyl-4-(1H-imidazo[4,5-b]pyridin-1-ylmethyl)-3-methylbenzamide], with 6.32; and `COCc1nc2cccnc2n1Cc1ccc(C(=O)N(C(C)C)C2CCCCC2)cc1OC` [Example 22, N-cyclohexyl-3-methoxy-4-[[2-(methoxymethyl)-3H-imidazo[4,5-b]pyridin-3-yl]methyl]-N-(1-methylethyl)benzamide], with 7.06.
For the molecule `COc1cc(Cn2cnc3cccnc32)ccc1C(=O)N(C1CCCC1)C1CC(C)CC(C)C1` (stereo not shown) [Example 7, N-cyclopentyl-N-(3,5-dimethylcyclohexyl)-4-(3H-imidazo[4,5-b]pyridin-3-ylmethyl)-2-methoxybenzamide], the negative-log IC50 (pIC50) in test [1] is 7.14.
The molecule `COc1cc(C(=O)N(C(C)C)C2CCCCC2)ccc1Cn1c(C)nc2cccnc21` [Example 12, N-cyclohexyl-3-methoxy-N-(1-methylethyl)-4-[(2-methyl-3H-imidazo [4,5-b]pyridin-3-yl)methyl]benzamide] gave a pIC50 in test [1] of 5.94.
With `COc1cc(C(=O)N(C(C)C)C2CCCCC2)ccc1Cn1c(CN(C)C)nc2cccnc21` [Example 20, N-cyclohexyl-4-[[2-[(dimethylamino)methyl]-3H-imidazo[4,5-b]pyridin-3-yl]methyl]-3-methoxy-N-(1-methylethyl)benzamide], the inhibition at 0.01 µM in test [1] (at 10 nM, two-run average) was 62%. This molecule also gave a pIC50 in test [1] of 8.00.
In turn, `COc1cc(C(=O)N(C(C)C)C2CCCCC2)ccc1Cn1c(CO)nc2ncccc21` [Example 17, N-cyclohexyl-4-[[2-(hydroxymethyl)-1H-imidazo [4,5-b]pyridin-1-yl]methyl]-3-methoxy-N-(1-methylethyl)benzamide] had a negative logarithm of the IC50 (pIC50) in test [1] of 8.22.
Regarding `COc1cc(C(=O)N(C(C)C)C2CCCCC2)ccc1Cn1cnc2ncccc21` [Example 6, N-cyclohexyl-4-(1H-imidazo[4,5-b]pyridin-1-ylmethyl)-3-methoxy-N-(1-methylethyl)benzamide], the results for the pIC50 in test [1], in test [2] and in test [3] were 8.22, 6.95 and 8.10, respectively.
In the case of `COc1cc(C(=O)N(C(C)C)C2CCCCC2)ccc1Cn1cnc2cccnc21` [Example 5, N-cyclohexyl-4-(3H-imidazo[4,5-b]pyridin-3-ylmethyl)-3-methoxy-N-(1-methylethyl)benzamide], in test [1], the negative-log IC50 (pIC50) is 6.38.
On the same count and under the same terms, then `COc1cc(C(=O)N(C(C)C)C2CCCCC2)ccc1Cn1c(CO)nc2cccnc21` [Example 18, N-cyclohexyl-4-[[2-(hydroxymethyl)-3H-imidazo [4,5-b]pyridin-3-yl]methyl]-3-methoxy-N-(1-methylethyl)benzamide], with 7.96.
Turning to `COCc1nc2ncccc2n1Cc1ccc(C(=O)N(C(C)C)C2CCCCC2)cc1OC` [Example 21, N-cyclohexyl-3-methoxy-4-[[2-(methoxymethyl)-1H-imidazo [4,5-b]pyridin-1-yl]methyl]-N-(1-methylethyl)benzamide], the pIC50 in test [1] was 8.05.
Turning to `COc1cc(C(=O)N(C(C)C)C2CCCCC2)ccc1Cn1c(CN(C)C)nc2ncccc21` [Example 19, N-cyclohexyl-4-[[2-[(dimethylamino)methyl]-1H-imidazo[4,5-b]pyridin-1-yl]methyl]-3-methoxy-N-(1-methylethyl)benzamide], the pIC50 in test [1] is 8.52.
Same read-out and setting: under `COc1cc(C(=O)N(C(C)C)C2CCCCC2)ccc1Cn1c(N(C)C)nc2ncccc21` [Example 23, N-cyclohexyl-4-[[2-(dimethylamino)-1H-imidazo[4,5-b]pyridin-1-yl]methyl]-3-methoxy-N-(1-methylethyl)benzamide] stands 7.89; under `COc1cc(Cn2cnc3ncccc32)ccc1C(=O)N(C(C)C)C1CCCCC1` [Example 4, N-cyclohexyl-4-(1H-imidazo[4,5-b]pyridin-1-ylmethyl)-2-methoxy-N-(1-methylethyl)benzamide], 6.82.
Same read-out and setting: then `COc1cc(C(=O)N(C(C)C)C2CCCCC2)ccc1Cn1c(-c2ccccc2Cl)nc2ncccc21` [Example 14, 4-[[2-(2-chlorophenyl)-1H-imidazo[4,5-b]pyridin-1-yl]methyl]-N-cyclohexyl-3-methoxy-N-(1-methylethyl)benzamide], with 6.40; and `Cc1cc(C(=O)N(C2CCCCC2)C2CCCC2)ccc1Cn1cnc2cccnc21` [Example 10, N-cyclohexyl-N-cyclopentyl-4-(3H-imidazo[4,5-b]pyridin-3-ylmethyl)-3-methylbenzamide], with 5.28; and `COc1cc(C(=O)N(C(C)C)C2CCCCC2)ccc1Cn1c(C)nc2ncccc21` [Example 11, N-cyclohexyl-3-methoxy-N-(1-methylethyl)-4-[(2-methyl-1H-imidazo[4,5-b]pyridin-1-yl)methyl]benzamide], with 8.05.
